Assay results published in ChEMBL document CHEMBL3217418, “Design, synthesis and biological activity evaluation of regioisomeric spiro-(indoline-isoxazolidines) in the inhibition of TNF--induced ICAM-1 expression on human endothelial cells” (Medchemcomm, 2012).
The source made the active and inactive calls. The calls are words filed in the database; no cut-off is given here.

Assays:
[1] = Cytotoxicity against HUVEC assessed as cell viability after 24 hrs by MTT assay relative to control; format: cell-based; design: concentration or dose not given beside the values; settings: human, HUVEC cells; read-out: Activity
[2] = test system: HUVEC; test: Antiinflammatory activity in HUVEC assessed as inhibition of TNFalpha-induced ICAM-1 expression incubated for 2 hrs prior to TNFalpha challenge measured after 16 hrs by ELISA; format: functional, cell-based; settings: Homo sapiens
[3] = Cytotoxicity against HUVEC assessed as concentration at which viability is > 95 % after 24 hrs by MTT assay; format: cell-based; settings: human, HUVEC cells; read-out: MTD
[4] = molecular target: Transcription factor p65 (Homo sapiens) (UniProt Q04206); test: Inhibition of NF-kappaB p65 subunit translocation from cytoplasm to nucleus in HUVEC at 100 uM incubated for 2 hrs prior to TNFalpha challenge measured after 30 mins by SDS-PAGE
Sequence of Transcription factor p65 (Homo sapiens) (Q04206 whole entry): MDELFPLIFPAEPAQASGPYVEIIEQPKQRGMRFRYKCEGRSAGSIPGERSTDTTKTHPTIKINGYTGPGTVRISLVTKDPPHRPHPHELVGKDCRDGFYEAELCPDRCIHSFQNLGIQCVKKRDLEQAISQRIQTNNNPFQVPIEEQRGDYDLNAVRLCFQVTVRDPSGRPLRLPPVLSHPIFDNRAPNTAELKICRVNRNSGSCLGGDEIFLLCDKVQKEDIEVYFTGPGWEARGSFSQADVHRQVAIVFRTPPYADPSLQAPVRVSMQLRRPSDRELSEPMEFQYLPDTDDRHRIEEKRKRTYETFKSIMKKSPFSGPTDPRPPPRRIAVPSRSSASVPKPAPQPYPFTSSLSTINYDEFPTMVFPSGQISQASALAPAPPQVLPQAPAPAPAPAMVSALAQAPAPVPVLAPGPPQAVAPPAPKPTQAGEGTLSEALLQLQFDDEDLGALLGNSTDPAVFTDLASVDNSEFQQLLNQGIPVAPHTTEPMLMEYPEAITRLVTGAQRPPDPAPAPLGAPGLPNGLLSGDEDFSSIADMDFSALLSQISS

[5] = molecular target: Transcription factor p65 (Homo sapiens) (UniProt Q04206); test: Inhibition of NF-kappaB p65 subunit translocation from cytoplasm to nucleus in HUVEC assessed as NF-kappaB p65 subunit level in nuclear extract at 1 to 100 uM incubated for 2 hrs prior to TNFalpha challenge measured after 30 mins by densitometry
[6] = molecular target: Transcription factor p65 (Homo sapiens) (UniProt Q04206); test: Inhibition of NF-kappaB p65 subunit translocation from cytoplasm to nucleus in HUVEC assessed as NF-kappaB p65 subunit level in cytoplasm at 1 to 100 uM incubated for 2 hrs prior to TNFalpha challenge measured after 30 mins by densitometry
[7] = molecular target: Transcription factor p65 (Homo sapiens) (UniProt Q04206); test: Inhibition of NF-kappaB p65 subunit translocation from cytoplasm to nucleus in HUVEC at 1 to 100 uM incubated for 2 hrs prior to TNFalpha challenge measured after 30 mins by SDS-PAGE
[8] = test system: Neutrophil; test: Inhibition of human neutrophil adhesion to human endothelial cells incubated for 2 hrs prior to TNFalpha challenge measured after 6 hrs by spectroscopy; format: functional, cell-based

Compound | viability at 24 h [1] [%] | IC50 [2] [µM] | MNTC at 24 h [3] [µM] | also measured
CCOC(=O)C1ON(c2ccccc2)C(c2ccc(Br)cc2)C12C(=O)Nc1ccc(F)cc12 (stereo not given) | 98 | 35 | 98 | 
CCOC(=O)C1C(c2ccc(F)cc2)N(c2ccccc2)OC12C(=O)Nc1ccccc12 (stereo not given) | 96 | 146 | 231 | 
S=C(S)N1CCCC1 |  |  |  | inhibition [4]: Active
CCOC(=O)C1ON(c2ccccc2)C(c2cccc(F)c2)C12C(=O)Nc1ccc(F)cc12 (stereo not given) | 95 | 66 | 111 | 
CCOC(=O)C1ON(c2ccccc2)C(c2ccc(N(C)C)cc2)C12C(=O)Nc1ccc(F)cc12 (stereo not given) | 96 | 26 | 110 | 
CCOC(=O)C1C(c2cccc([N+](=O)[O-])c2)N(c2ccccc2)OC12C(=O)Nc1ccccc12 (stereo not given) | 98 | 45 | 218 | 
CCOC(=O)C1ON(c2ccccc2)C(c2cccc([N+](=O)[O-])c2)C12C(=O)Nc1ccccc12 (stereo not given) | 96 | 169 | 218 | 
CCOC(=O)C1C(c2ccc(Br)cc2)N(c2ccccc2)OC12C(=O)Nc1ccccc12 (stereo not given) | 96 | 41 | 203 | 
CCOC(=O)C1ON(c2ccccc2)C(c2ccc(Cl)cc2)C12C(=O)Nc1ccc(F)cc12 (stereo not given) | 96 | 54 | 107 | 
CCOC(=O)C1C(c2cccc(F)c2)N(c2ccccc2)OC12C(=O)Nc1ccccc12 (stereo not given) | 98 | 35 | 116 | 
CCOC(=O)C1C(c2ccc(C#N)cc2)N(c2ccccc2)OC12C(=O)Nc1ccc(F)cc12 (stereo not given) | 98 | 49 | 110 | 
CCOC(=O)C1ON(c2ccccc2)C(c2ccc(Cl)cc2)C12C(=O)Nc1ccccc12 (stereo not given) | 96 | 147 | 223 | 
CCOC(=O)C1ON(c2ccccc2)C(c2ccc(C#N)cc2)C12C(=O)Nc1ccc(F)cc12 (stereo not given) | 96 | 48 | 110 | 
CCOC(=O)C1ON(c2ccccc2)C(c2cccc(Cl)c2)C12C(=O)Nc1ccccc12 (stereo not given) | 96 | 25 | 223 | 
CCOC(=O)C1C(c2cccc(OC)c2OC)N(c2ccccc2)OC12C(=O)Nc1ccc(F)cc12 (stereo not given) | 99 | 27 | 102 | 
CCOC(=O)C1ON(c2ccccc2)C(c2ccc([N+](=O)[O-])cc2)C12C(=O)Nc1ccc(F)cc12 (stereo not given) | 97 | 32 | 105 | 
CCOC(=O)C1ON(c2ccccc2)C(c2ccccc2F)C12C(=O)Nc1ccc(F)cc12 (stereo not given) | 96 | 51 | 111 | 
CCOC(=O)C1ON(c2ccccc2)C(c2ccc(F)cc2)C12C(=O)Nc1ccccc12 (stereo not given) | 96 | 51 | 116 | 
CCOC(=O)C1C(c2ccc([N+](=O)[O-])cc2)N(c2ccccc2)OC12C(=O)Nc1ccccc12 (stereo not given) | 97 | > 217 | 218 | 
CCOC(=O)C1ON(c2ccccc2)C(c2ccc(F)c(F)c2)C12C(=O)Nc1ccc(F)cc12 (stereo not given) | 95 | 62 | 107 | 

Compound | viability at 24 h [1] [%] | IC50 [2] [µM] | MNTC at 24 h [3] [µM] | also measured
CCOC(=O)C1C(c2cccc(Cl)c2)N(c2ccccc2)OC12C(=O)Nc1ccccc12 (stereo not given) | 97 | 35 | 223 | 
CCOC(=O)C1ON(c2ccccc2)C(c2ccc([N+](=O)[O-])cc2)C12C(=O)Nc1ccccc12 (stereo not given) | 97 | > 217 | 218 | 
CCOC(=O)C1ON(c2ccccc2)C(c2cccc(C)c2)C12C(=O)Nc1ccc(F)cc12 (stereo not given) | 98 | 45 | 112 | 
CCOC(=O)C1ON(c2ccccc2)C(c2ccc(OCC)cc2)C12C(=O)Nc1ccc(F)cc12 (stereo not given) | 97 | 12 | 105 | inhibition [5]: Active; inhibition [6]: Active; inhibition [7]: Dose-dependent effect; IC50 [8]: 12.5 µM; inhibition [8]: Dose-dependent effect
CCOC(=O)C1ON(c2ccccc2)C(c2ccc(C)cc2)C12C(=O)Nc1ccccc12 (stereo not given) | 99 | 52 | 234 | 
CCOC(=O)C1C(c2ccc(Cl)cc2)N(c2ccccc2)OC12C(=O)Nc1ccccc12 (stereo not given) | 96 | > 223 | 223 | 
CCOC(=O)C1ON(c2ccccc2)C(c2cc(OC)c(OC)c(OC)c2)C12C(=O)Nc1ccc(F)cc12 (stereo not given) | 97 | 29 | 96 | 
CCOC(=O)C1ON(c2ccccc2)C(c2ccc(OC)cc2)C12C(=O)Nc1ccc(F)cc12 (stereo not given) | 96 | 42 | 108 | 
CCOC(=O)C1ON(c2ccccc2)C(c2cccc(OC)c2OC)C12C(=O)Nc1ccc(F)cc12 (stereo not given) | 98 | 32 | 102 | 
CCOC(=O)C1C(c2cccc(Br)c2)N(c2ccccc2)OC12C(=O)Nc1ccccc12 (stereo not given) | 95 | 100 | 203 | 
O=C(/C=C/C=C/c1ccc2c(c1)OCO2)N1CCCCC1 [PIPERINE] | 98 | 100 | 250 | 
CCOC(=O)C1ON(c2ccccc2)C(c2cccc(C)c2)C12C(=O)Nc1ccccc12 (stereo not given) | 98 | 35 | 234 | 
CCOC(=O)C1ON(c2ccccc2)C(c2ccc(F)cc2)C12C(=O)Nc1ccc(F)cc12 (stereo not given) | 96 | > 111 | 111 | 
CCOC(=O)C1ON(c2ccccc2)C(c2cccc(Br)c2)C12C(=O)Nc1ccccc12 (stereo not given) | 95 | 57 | 203 | 
CCOC(=O)C1ON(c2ccccc2)C(c2ccc(Br)cc2)C12C(=O)Nc1ccccc12 (stereo not given) | 98 | 51 | 203 | 
CCOC(=O)C1ON(c2ccccc2)C(c2ccc(C(F)(F)F)cc2)C12C(=O)Nc1ccc(F)cc12 (stereo not given) | 96 | 57 | 100 | 
CCOC(=O)C1C(c2cccc(C)c2)N(c2ccccc2)OC12C(=O)Nc1ccccc12 (stereo not given) | 96 | 57 | 234 | 
CCOC(=O)C1C(c2ccc(C)cc2)N(c2ccccc2)OC12C(=O)Nc1ccccc12 (stereo not given) | 96 | 31 | 234 | 
CCOC(=O)C1ON(c2ccccc2)C(c2cccc(F)c2)C12C(=O)Nc1ccccc12 (stereo not given) | 98 | > 162 | 231 | 
